Laboratory results published in patent publication EP2364976B1, “S1P receptor modulating compounds and use thereof” (EPIX Pharmaceuticals, Inc., priority 2007, dated 2007).
Several values for one entry are separate records, joined by “and”; a condition that tells them apart may be missing. Equal values may be shown once. Where a name gives a salt, the structure may show the parent alone.

What follows are compounds tested against T1, hS1P1 (Homo sapiens, UniProt P21453) (assay: hS1P1 EC50 (S1P receptor Ca2+ flux protocol, FLIPR, CHO K1 Gqi5 cells)). Settings: several values per compound = repeat determinations as printed.
T1 construct: expressed in transfected cells
Type: cell-based
Procedure: S1P receptor activity may also be measured by an SIP receptor (e.g., hS1P1, hS1P3, rS1P1, rS1P3 and parental cell) Ca^2+ Flux protocol as described below: • 1. Material • a. FLIPR buffer: 1x HBSS; 10mM HEPES • b. Cell growth media: • i. human and rat S1P1 and S1P3: F12-Ham's media; 10% FBS (qualified); 1x Pen/Strep/Glu; 300ug/mL Hygromycin; 400ug/mL Geneticin ii. Parental cell: human and rat S1P and S1P3: F12-Ham's media; 10% FBS (qualified); 1x Pen/Strep/Glu; 300ug/mL Hygromycin; • c. Cell seeding media; F12-Ham's media; 10% FBS (Charcoal/dextran stripped); 1x Pen/Strep/Glu; • d. Cell dissociation buffer: Versene from Invitrogen • e. Agonist (SIP) dissolving buffer: 0.4% (w/v) fatty-acid free BSA (Sigma # A8806) in FLIPR buffer • f. FLIPR dye: BD PBX Calcium assay kit; Cat#641077 is composed of Calcium indicator (Cat#850000) and 100x PBX signal enhancer (cat#850001). The 100x PBX signal enhancer is diluted into FLIPR buffer 1:100 and the calcium indicator is then added at 1:1000 ratio. • g. Cell plates (96-well): Greiner Cat#655090 • h. Compound plates (96-well): Costar #3365 • i. S1P stock solution preparation: S1P is purchased from CalBioChem (Catalog # 970471; 1mg vial; custom prep using methanol, & nitrogen gas drying inside glass vial; Storage @ -20°C). Dissolve 1 vial of SIP into 26.4ml of agonist dissolving buffer in a 50ml centrifuge tube; Remove label from bottle of SIP, open and drop entire bottle into tube. Sonicate at 37° for ½ hour. Clear solution of 100µM will result. This stock solution is aliquoted and stored at -80C • 2. Cell line maintenance • a. V5 tags were added at the N-terminus of hS1P1, hS1P3, rS1P1 and rS1P3. All four genes were transfected into CHO K1 cells which stably express Gqi5. • b. hS1P1 and hS1P3 were established as stable clones and rS1P1 and rS1P3 were sorted by anti V5 tag and established as stable pools after sorting. • c. Parental cell line CHO/K1 Gqi5 is used as the control. • d. All the cells are maintained in cell growth media and splitted twice a week using Versene. • e. All the cell lines are used under passage 30. • 3. Assay protocol • a. Cell seeding: Cells are lifted from the flask by Versene and seeded in cell plates at 50K/well in cell seeding media. Cells are grown overnight at 37 degree. • b. Cell loading: Cell seeding media is discarded. Cells are loaded with 50ul of FLIPR dye at RT for 90 min. Signal is stable for up to 5 h after dye loading. • c. Agonist (S1P) preparation: Frozen stock of S1P is thawed out and sonicated at 37c for 30 minutes every time before use. The stock is then diluted into FLIPR buffer at proper concentration. • d. Compound preparation: Compounds are dissolved in DMSO. A 3x, 10 point dilution of the compounds are carried out in DMSO. Then the compounds are diluted into assay buffer133x so that the DMSO concentration is 0.75%. • e. Activity measurement: The fluorescence signal change of the cells upon compound addition is monitored in FLIPRtetra. 25ul of compound is transferred into the cell plates (50ul of FLIPR dye; DMSO concentration: 0.25%). Signal is recorded for 90sec after compound addition. Then 50ul of 500nM SIP is added in the cell plate, and signal is recorded for 90 seconds upon addition. • 4. Data analysis • a. Peak value is calculated for each compound/S1P addition • b. The peak value of S1P at 200nM is used as high control (100%), and the peak value of buffer only is used as low control (0%). • c. Data is normalized against high and low controls using the following equation: POC_S = 100*(RAW-LO)/(HI-LO) [formula] • d. Peak value is plotted against the concentration of compound. • e. Curve is fitted using the 4 parameter fit: Y = (A+(B/(1+(((x/C))^(∧)D)))) [formula] where: Y is POC_S (or POC) • X is compound concentration • A is the minimum (EC50min or IC50min) • B is the maxmum (EC50max or IC50max) • C is the inflection point (EC50IP or IC50IP) • D is the hill slope (EC50 slope or IC50 slope).

T1 sequence (P21453 whole entry): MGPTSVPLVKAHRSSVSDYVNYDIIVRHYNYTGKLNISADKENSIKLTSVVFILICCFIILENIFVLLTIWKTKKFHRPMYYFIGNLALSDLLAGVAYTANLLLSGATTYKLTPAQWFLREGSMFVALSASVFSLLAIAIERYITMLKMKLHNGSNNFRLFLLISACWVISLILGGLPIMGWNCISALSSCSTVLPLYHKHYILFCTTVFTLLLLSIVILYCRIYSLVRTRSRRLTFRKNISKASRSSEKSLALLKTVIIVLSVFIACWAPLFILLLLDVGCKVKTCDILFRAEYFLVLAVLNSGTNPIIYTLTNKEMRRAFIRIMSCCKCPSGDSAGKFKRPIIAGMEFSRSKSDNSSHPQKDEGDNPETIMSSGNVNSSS

Compound | EC50
O=C(O)C1CN(Cc2ccc(-c3cc4cc(C(=NO)c5ccccc5)ccc4o3)c(F)c2)C1 (mixture of isomers) [Reference Compound 103, (E/Z)-1-((3-Fluoro-4-(5-((hydroxyimino)(phenyl)methyl)benzofuran-2-yl)phenyl)methyl)azetidine-3-carboxylic acid] | 16 nM
O=C(O)C1CCN(Cc2ccc(-c3cc4cc(Cc5ccccc5)ccc4o3)c(F)c2)C1 (racemic) [Reference Compound 41] | 315 nM
O=C(O)C1CN(Cc2ccc(-c3cc4cc(Cc5ccccc5)cnc4o3)c(F)c2)C1 [Inventive Compound 98, 1-((3-Fluoro-4-(5-(phenylmethyl)furo[2,3-b]pyridin-2-yl)phenyl)methyl)-3-azetidinecarboxylic acid] | 27 nM
O=C(O)C1CN(Cc2ccc(-c3nc4cc(Cc5ccccc5)ccc4s3)c(F)c2)C1 [Inventive Compound 114, 1-((4-(5-Benzylbenzo[d]thiazol-2-yl)-3-fluorophenyl)methyl)azetidine-3-carboxylic acid] | 29 nM
O=C(O)C1CN(Cc2ccc(-c3nc4cc(Sc5ccccc5)ccc4o3)c(F)c2)C1 [Inventive Compound 117, 1-((3-Fluoro-4-(5-(phenylthio)benzo[d]oxazol-2-yl)phenyl)methyl)azetidine-3-carboxylic acid] | 3 nM
O=C(O)C1CN(Cc2ccc(-c3cn4ccc(Cc5ccccc5)cc4n3)c(F)c2)C1 [Inventive Compound 119, 1-(4-(7-Benzyl-1H-imidazo[1,2-a]pyridin-2-yl)-3-fluorobenzyl)azetidine-3-carboxylic acid, trifluoroacetic acid salt] | 54 nM
O=C(O)C1CN(Cc2ccc(-c3cc4cc(-c5ccccc5)ccc4o3)cc2)C1 [Reference Compound 1, 1-(4-(5-Phenylbenzofuran-2-yl)benzyl)azetidine-3-carboxylic acid] | 1200 nM
CCCCc1ccc2oc(-c3ccc(CN4CC(C(=O)O)C4)cc3)cc2c1 [Reference Compound 2, 1-((4-(5-Butylbenzofuran-2-yl)phenyl)methyl)azetidine-3-carboxylic acid] | 200 nM and 510 nM and 867 nM
CCCCOc1ccc2oc(-c3ccc(CN4CC(C(=O)O)C4)cc3)cc2c1 [Reference Compound 3] | 520 nM
O=C(O)C1CN(Cc2ccc(-c3cc4cc(Cc5ccccc5)ccc4o3)cc2)C1 [Reference Compound 4, 1-((4-(5-Benzylbenzofuran-2-yl)phenyl)methyl)azetidine-3-carboxylic acid] | 400 nM and 460 nM and 420 nM and 107 nM
O=C(O)C1CN(Cc2ccc(-c3cc4cc(C5CCCCC5)ccc4o3)cc2)C1 [Reference Compound 6, 1-(4-(5-cyclohexylbenzofuran-2-yl)benzyl)azetidine-3-carboxylic acid] | 970 nM and 400 nM and 440 nM and 421 nM
O=C(O)C1CCN(Cc2ccc(-c3cc4cc(C5CCCCC5)ccc4o3)cc2)CC1 [Reference Compound 7, 1-(4-(5-cyclohexylbenzofuran-2-yl)benzyl)piperidine-4-carboxylic acid] | 1600 nM
CCCCc1ccc2oc(-c3ccc(CN4CCC(C(=O)O)CC4)cc3)cc2c1 [Reference Compound 8, 1-((4-(5-Butylbenzofuran-2yl)phenyl)methyl)pineridine-4-carbocylic acid] | 3100 nM
O=C(O)C1CCN(Cc2ccc(-c3cc4cc(Cc5ccccc5)ccc4o3)cc2)CC1 [Reference Compound 9, 1-(4-(5-Benzylbenzofuran-2-yl)phenyl)methyl piperldine4-carboxylic acid] | 4800 nM
CC(C)Cc1ccc2oc(-c3ccc(CN4CC(C(=O)O)C4)cc3)cc2c1 [Reference Compound 10, 1-((4-(5-isobutylbenzofuran-2-yl)phenyl)methyl)azetidine-3-carboxylic acid] | 270 nM and 490 nM and 383 nM
O=C(O)C1CN(Cc2ccc(-c3cc4cc(CCc5ccccc5)ccc4o3)cc2)C1 [Reference Compound 11, 1-((4-(5-phenethylbenzofaran-2-yl)phenyl)methyl)azetidine-3-carboxylic acid] | 580 nM
O=C(O)C1CN(Cc2ccc(-c3cc4cc(-c5cccnc5)ccc4o3)cc2)C1 [Reference Compound 12, 1-(4-(5-(pyridin-3-yl)benzofuran-2-yl)benzyl)azetidine-3-carboxylic acid] | 3600 nM
CC(C)Cc1ccc2oc(-c3ccc(CN4CCC(C(=O)O)CC4)cc3)cc2c1 [Reference Compound 13, 1-(4-(5-isobutylbenzofuran-2yl)benzyl)piperidine-4-carboxylic acid] | 1700 nM
O=C(O)C1CN(Cc2ccc(-c3cc4cc(Cc5ccccc5)ccc4o3)cc2F)C1 [Reference Compound 14, 1-((4-(5-Benzylbenzofuran-2-yl)2-fluorophenyl)methyl)azetidine-3-carboxylic acid] | 620 nM and 334 nM
O=C(O)C1CN(Cc2ccc(-c3cc4cc(Cc5ccccc5)ccc4o3)c(F)c2)C1 [Reference Compound 15, 1-((4-(5-Benzylbenzofuran-2-yl)-3-fluorophenyl)methyl)azetidine-3-carboxylic acid] | 160 nM and 38 nM
CCCCOc1ccc2oc(-c3ccc(CN4CCC(C(=O)O)CC4)cc3)cc2c1 [Reference Compound 16] | 17000 nM
O=C(O)C1CN(Cc2ccc(-c3cc4cc(C5CCCCC5)ccc4o3)nc2)C1 [Reference Compound 17, 1-((6-(5-cyclohexylbenzofuran-2-yl)pyridin-3-yl)methyl)azetidine-3-carboxylic acid] | 720 nM and 302 nM
Cc1cccc(-c2ccc3oc(-c4ccc(CN5CC(C(=O)O)C5)cc4)cc3c2)n1 [Reference Compound 18, 1-(4-(5-(6-methylpyridin-2-yl)benzofuran-2-yl)benzyl)azetidine-3-carboxylic acid] | 2900 nM
O=C(O)C1CN(Cc2ccc(-c3cc4cc(Oc5ccccc5)ccc4o3)cc2)C1 [Reference Compound 19, 1-(4-(5-phenoxybenzofuran-2-yl)benzyl)azetidine-3-carboxylic acid] | 510 nM and 92 nM
CC(C)CCc1ccc2oc(-c3ccc(CN4CC(C(=O)O)C4)cc3)cc2c1 [Reference Compound 20, 1-((4-(5-Isopentylbenzofuran-2-yl)phenyl)methyl)azetidine-3-carboxylic acid] | 630 nM
CCCCOc1ccc2cc(-c3ccc(CN4CC(C(=O)O)C4)cc3)oc2c1 [Reference Compound 21, 1-((4-(6-Butoxybenzofuran-2-yl)phenyl)methyl)azetidine-3-carboxylic acid] | 2000 nM
CCCCOc1ccc2oc(-c3ccc(CN4CC(C(=O)O)C4)cc3OC)cc2c1 [Reference Compound 24] | 420 nM and 700 nM
CCCCOc1ccc2oc(-c3ccc(CN4CC(C(=O)O)C4)s3)cc2c1 [Reference Compound 25, 1-((5-(5-butoxybenzofuran-2-yl)thiophen-2-yl)methyl)azetidine-3-carboxylic acid] | 1600 nM
O=C(O)C1CN(Cc2ccc(-c3cc4cc(C5CCCCC5)ccc4o3)c(F)c2)C1 [Reference Compound 27] | 160 nM and 361 nM
O=C(O)C1CN(Cc2ccc(-c3cc4cc(-c5cccs5)ccc4o3)cc2)C1 [Reference Compound 28, 1-((4-(5-(thiophen-2-yl)benzofuran-2-yl)phenyl)methyl)azetidine-3-carboxylic acid] | 1800 nM
